Assay results published in paper PMC6606642, “Inhibition of Cathepsin S Reduces Lacrimal Gland Inflammation and Increases Tear Flow in a Mouse Model of Sjögren’s Syndrome” (Scientific Reports, 2019).

Biological target: Cathepsin S (human recombinant CTSS) (Homo sapiens, UniProt P25774)
Test: fluorescence CTSS activity assay kit with recombinant enzyme
Format: biochemical

Sequence of Cathepsin S (human recombinant CTSS) (P25774 115-331): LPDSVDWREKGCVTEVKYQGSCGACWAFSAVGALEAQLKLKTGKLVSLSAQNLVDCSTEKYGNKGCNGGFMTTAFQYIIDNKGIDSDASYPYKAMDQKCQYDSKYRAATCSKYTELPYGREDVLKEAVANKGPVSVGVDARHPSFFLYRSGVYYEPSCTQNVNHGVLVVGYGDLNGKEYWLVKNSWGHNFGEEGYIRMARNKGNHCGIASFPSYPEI

IC50 [nM]	Compound
172 ± 32.7	CC(C)C[C@H](NC(=O)[C@H](Cc1ccccc1)NC(=O)OCc1ccccc1)C(=O)C=O [Z-FL, Z-FL-COCHO]
262 ± 59.3	CC(C)C[C@H](NC(=O)[C@H](Cc1ccccc1)NC(=O)OCc1ccccc1)C(=O)C=O [Z-FL-hydrate, Z-FL-COCHO-hydrate]
